Laboratory results from patent US11275086B2 (priority 2010, dated 2022).
Like-named read-outs stand apart in the source and are kept apart here.

Test system: MTB specific T CD4+ lymphocytes
Format: cell-based, human
Settings: for positive tests / evaluable subjects: Microbiologically checked TB patients (before therapy start) / positive tests / evaluable subjects: Recently MTB exposed subjects: anergic subjects excluded

| Substance | positive tests / evaluable subjects: BCG-vaccinated controls | positive tests / evaluable subjects: Microbiologically checked TB patients (before therapy start) | positive tests / evaluable subjects: Recently MTB exposed subjects | positive tests / evaluable subjects: Sanitary workers | sensitivity compared with ESAT-6 derived control peptide (result in words) | positive tests / evaluable subjects: BCG-vaccinated controls (BCG-vaccinated controls) |
| --- | --- | --- | --- | --- | --- | --- |
| RPVRRVLLFVVPSSGPAP (listed as Mycobacterium tuberculosis) [Peptide #4, peptide of Rv3479] | 0/15 | 10/55 | 13/61 | 6/21 | – | – |
| GSVRQLPSVLKPPLITLRTLTLSG (listed as Mycobacterium tuberculosis) [Peptide #3, peptide of Rv3479] | 0/15 | 27/55 | 20/61 | 7/21 | elevated sensitivity comparable, if not more elevated, to multiepitope ESAT-6 protein derived control peptide | – |
| AVIVRSELLTQYL (listed as Mycobacterium tuberculosis) [Peptide #2, peptide of Rv1251c] | – | 11/55 | 8/61 | 1/21 | – | 0/15 |
| GEIIFISGRLNGaa (GEIIFISGRLNGAA; listed as Mycobacterium tuberculosis) [Peptide #5, peptide of Rv0724A] | – | 18/55 | 11/61 | 5/21 | – | 0/15 |
| ELMARAAVLGSAH (listed as Mycobacterium tuberculosis) [Peptide #6, peptide of Rv1251c] | – | 14/55 | 6/61 | 3/21 | – | 0/15 |
| TAWITAVVPGLMV (listed as Mycobacterium tuberculosis) [Peptide #1, peptide of Rv1478 (Consensus VIR)] | 0/15 | 12/55 | 14/61 | 6/21 | – | – |
